Reference: patent publication US8486962B2, “Antifungal agents” (F2G Ltd., priority 2005, dated 2013)
Values after ≈ are worked out from the molar mass of the structure shown. Like-named read-outs stand apart in the source and are kept apart here.

Columns and labels:
[1] = system: Aspergillus niger; assay: MIC, YAG medium, Aspergillus niger; format: cell-based; conditions: YAG medium; for MIC: Aspergillus niger
Summary of the method: (§1)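 Broth microdilution over doubling dilutions (50-0.05 mg/L). C. albicans in RPMI with 2% glucose and 0.135M MOPS (pH7.0), 1-2×10^3 cfu/ml, 24-48 hrs at 35° C; MIC = >80% growth inhibition by OD485. Aspergillus spp. in YAG (1% glucose, 1% ammonium chloride, 0.5% yeast extract), 1-2×10^4 cfu/ml, 24 hrs, >70% inhibition.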

[2] = system: Aspergillus fumigatus AF210; assay: MIC, YAG medium, Aspergillus fumigatus AF210; format: cell-based; conditions: YAG medium; for MIC: Aspergillus fumigatus, AF210, read-out: MIC A Fum. 210
Summary of the method: as §1

[3] = system: Aspergillus terreus; assay: MIC, YAG medium, Aspergillus terreus; format: cell-based; conditions: YAG medium; for MIC: Aspergillus terreus
Summary of the method: as §1

[4] = system: Aspergillus flavus; assay: MIC, YAG medium, Aspergillus flavus; format: cell-based; conditions: YAG medium; for MIC: Aspergillus flavus
Summary of the method: as §1

[5] = system: A Terreus 49; assay: MIC, YAG medium, A Terreus 49; format: cell-based, Aspergillus terreus; conditions: YAG medium
Description: Measurement of Minimum Inhibitory Concentrations (MICs)
Between 1 and 5 mgs of compound were accurately weighed out into a sterile Eppendorf tube. The compound was dissolved in DMSO to give a solution containing 5 mg/ml. Tubes were stored at −20° C. until required.
On the day of testing thawed solutions were vortex mixed to ensure homogeneity. 30 μl of solution was removed and added to 570 μl of sterile water in a separate sterile Eppendorf. The thoroughly mixed solution was used to prepare a series of doubling dilutions in water, in a deep well plate. Eleven replicate plates were prepared using a Minitrak by aspirating 20 μl from each well into eleven clear polystyrene 96 well plates.
Spores of Aspergillus spp (Aspergillus fumigatus, Aspergillus terreus, Aspergillus niger and Aspergillus flavus) were harvested from cultures grown on Sabarauds agar for 5 days, and resuspended in PBS/Tween 80 to approx 1×10^7 cfu/ml Other filamentous fungi (Fusarium solani, Scedosporium spp., Trichophyton spp., Absidia corymbifera), were grown on Sabarauds agar for 2-10 days and spores/hyphae resuspended in PBS/Tween to give approx 1×10^7 cfU/ml. Candida species (Candida albicans, Candida glabrata, Candida krusei, Candida parapsilosis and Candida tropicalis) were grown on Sabarauds agar, cells were harvested from the agar using a sterile loop and resuspended in PBS/Tween 80 to approx 1×10^6 cfu/ml. Each organism suspension was diluted in RPMI medium, containing 2% glucose and 0.135M MOPS buffer (pH7.0) to 2×10^4 cfu/ml for Aspergillus spp and other filamentous fungi and 2×10^3 cfu/ml for yeast. 80 μl of an organism suspension was added to each well of the plate containing drug dilutions.
This produced MIC plates with a drug range 50-0.05 mg/L and organism inocula of 1-2×10^4 cfu/ml for Aspergillus spp and other filamentous fungi and 1-2×10^3 cfu/ml for yeasts. All plates were incubated for 24-48 hrs at 35° C. Growth was assessed by monitoring the optical density at 485 nm for each well. The MIC of a compound is the lowest drug concentration that inhibits growth of an organism by >80% compared with a drug free control. MICs are recorded as mg/L. Other growth media can be used for susceptibility testing, and the activity of the described compounds can also be assessed in a medium comprising, 1% glucose, 1% ammonium chloride and 0.5% yeast extract (YAG medium). To perform MIC tests in this medium, dilutions of compounds are prepared in microtitre plates as described above. Fungal strains to be tested are grown and harvested in an identical manner to that described above, each organism suspension is then diluted in YAG medium to 2×10^4 cfu/ml for Aspergillus spp and other filamentous fungi and 2×10^3 cfu/ml for yeast. 80 μl of an organism suspension was added to each well of the plate containing drug dilutions. This produced MIC plates with a drug range 50-0.05 mg/L and organism inocula of 1-2×10^4 cfu/ml for Aspergillus spp and other filamentous fungi and 1-2×10^3 cfu/ml for yeasts. All plates were incubated for 24 hrs at 35° C. Growth was assessed by monitoring the optical density at 485 nm for each well. The MIC of a compound is the lowest drug concentration that inhibits growth of an organism by >70% compared with a drug free control. MICs are recorded as mg/L. In cases where the MIC of an organism is […]0.05 mg/L the MIC is repeated using a concentration range of 0.5-0.0005 mg/L. MIC tests in YAG medium have more clear-cut endpoints and have slightly lower MICS than those performed in RPMI medium.
The following organisms were tested: Aspergillus fumigatus AF293 and Aspergillus fumigatus AF210, Aspergillus niger, Aspergillus terreus, Aspergillus favus, Candida albicans, Candida krusei, Candida tropicalis, Candida glabrata, Candida parapsilosis, Trichophyton rubrum, Trichophyton mentagrophytes, Scedosporium prolificans, Scedosporium apiospermum, Absidia corymbifera, Fusarium solani.

[6] = system: Aspergillus fumigatus AF293; assay: MIC, YAG medium, Aspergillus fumigatus AF293; format: cell-based; conditions: YAG medium; for MIC: Aspergillus fumigatus, AF293, read-out: MIC A Fum. 293
Summary of the method: as §1

Compound	MIC ([1]; read-out: MIC A Niger 1) [µg/mL]	MIC [2] [µg/mL]	MIC ([3]; read-out: MIC A Terreus 4) [µg/mL]	MIC ([4]; read-out: MIC A Flavus 01) [µg/mL]	MIC [6] [µg/mL]	also measured
2-Oxo-2-(2-pyridin-3-yl-indolizin-3-yl)-N-(3-trifluoromethyl-phenyl)-acetamide [Example 223]						MIC A Niger 1 [1]: 0.5 µg/mL; MIC A Fum. 210 [2]: 0.25 µg/mL; MIC A Terreus 4 [3]: 0.12 µg/mL; MIC A Flavus 01 [4]: 0.062 µg/mL; MIC A Terreus 49 [5]: 0.031 µg/mL; MIC A Fum. 293 [6]: 0.5 µg/mL
CON=C(C)c1ccc(NC(=O)C(=O)c2c(-c3ccccc3)cc3ccccn23)cc1 (mixture of isomers) [Example 243, N-(4-{1-[(E/Z)-Methoxyimino]-ethyl}-phenyl)-2-oxo-2-(2-phenyl-indolizin-3-yl)-acetamide]						MIC A Niger 1 [1]: 0.015 µg/mL; MIC A Fum. 210 [2]: 0.12 µg/mL; MIC A Terreus 4 [3]: 0.008 µg/mL; MIC A Flavus 01 [4]: 0.015 µg/mL; MIC A Terreus 49 [5]: 0.004 µg/mL; MIC A Fum. 293 [6]: 0.062 µg/mL
CC(=NO)c1ccc(NC(=O)C(=O)c2c(-c3ccccc3)cc3ccccn23)cc1 (mixture of isomers) [Example 250, N-(4-{1-[(E/Z)-Hydroxyimino]-ethyl}-phenyl)-2-oxo-2-(2-phenyl-indolizin-3-yl)-acetamide]						MIC A Niger 1 [1]: 0.05 µg/mL; MIC A Fum. 210 [2]: 0.8 µg/mL; MIC A Terreus 4 [3]: 0.1 µg/mL; MIC A Flavus 01 [4]: 0.1 µg/mL; MIC A Terreus 49 [5]: 0.05 µg/mL; MIC A Fum. 293 [6]: 0.2 µg/mL
CC(C)(C#N)c1ccc(NC(=O)C(=O)c2c(-c3cccnc3)cc3ccccn23)cc1 [Example 225, N-[4-(Cyano-dimethyl-methyl)-phenyl]-2-oxo-2-(2-pyridin-3-yl-indolizin-3-yl)-acetamide]	3.1 (≈ 7.59 µM)	3.1 (≈ 7.59 µM)	0.1 (≈ 0.245 µM)	0.1 (≈ 0.245 µM)	3.1 (≈ 7.59 µM)	
COc1cc(NC(=O)C(=O)c2c(-c3cccnc3)cc3ccccn23)cc(OC)c1OC [Example 226, 2-Oxo-2-(2-pyridin-3-yl-indolizin-3-yl)-N-(3,4,5-trimethoxy-phenyl)-acetamide]	> 50	> 50	3.1 (≈ 7.19 µM)	1.6 (≈ 3.71 µM)	> 50	
O=C(Nc1cc(Cl)cc(Cl)c1)C(=O)c1c(-c2cccnc2)cc2ccccn12 [Example 227, N-(3,5-Dichloro-phenyl)-2-oxo-2-(2-pyridin-3-yl-indolizin-3-yl)-acetamide]	1.6 (≈ 3.9 µM)	0.8 (≈ 1.95 µM)	0.05 (≈ 0.122 µM)	0.05 (≈ 0.122 µM)	1.6 (≈ 3.9 µM)	
CN(C)c1ccc(NC(=O)C(=O)c2c(-c3cccnc3)cc3ccccn23)cc1 [Example 230, N-(4-Dimethylamino-phenyl)-2-oxo-2-(2-pyridin-3-yl-indolizin-3-yl)-acetamide]	3.1 (≈ 8.06 µM)	> 50	0.2 (≈ 0.52 µM)	0.1 (≈ 0.26 µM)	> 50	
CC(C)(C#N)c1cccc(NC(=O)C(=O)c2c(-c3cccnc3)cc3ccccn23)c1 [Example 231, N-[3-(Cyano-dimethyl-methyl)-phenyl]-2-oxo-2-(2-pyridin-3-yl-indolizin-3-yl)-acetamide]	0.8 (≈ 1.96 µM)	0.8 (≈ 1.96 µM)	0.1 (≈ 0.245 µM)	0.05 (≈ 0.122 µM)	1.6 (≈ 3.92 µM)	
COc1ccc(NC(=O)C(=O)c2c(-c3ccccc3)cc3c(C)cccn23)cc1 [Example 234, N-(4-Methoxy-phenyl)-2-(8-methyl-2-phenyl-indolizin-3-yl)-2-oxo-acetamide]	> 50	> 50	1.6 (≈ 4.16 µM)	> 50	> 50	
COc1ccc(NC(=O)C(=O)c2c(-c3cccc(C#N)c3)cc3ccccn23)cc1 [Example 236, 2-[2-(3-Cyano-phenyl)-indolizin-3-yl]-N-(4-methoxy-phenyl)-2-oxo-acetamide]	> 50	> 50	0.05 (≈ 0.126 µM)	0.1 (≈ 0.253 µM)	> 50	
COc1ccc(NC(=O)C(=O)c2c(-c3ccccc3)cc3cccc(C)n23)cc1 [Example 237, N-(4-Methoxy-phenyl)-2-(5-methyl-2-phenyl-indolizin-3-yl)-2-oxo-acetamide]	0.8 (≈ 2.08 µM)	3.1 (≈ 8.06 µM)	0.4 (≈ 1.04 µM)	1.6 (≈ 4.16 µM)	1.6 (≈ 4.16 µM)	
COc1ccc(NC(=O)C(=O)c2c(-c3ccccc3)cc3ccc(OC)cn23)cc1 [Example 239, N-(4-Methoxy-phenyl)-2-(6-methoxy-2-phenyl-indolizin-3-yl)-2-oxo-acetamide]	0.8 (≈ 2 µM)	> 50	0.05 (≈ 0.125 µM)	0.05 (≈ 0.125 µM)	50 (≈ 125 µM)	
CN(C)CCOc1cccc(NC(=O)C(=O)c2c(-c3ccccc3)cc3ccccn23)c1 [Example 240, N-[3-(2-Dimethylamino-ethoxy)-phenyl]-2-oxo-2-(2-phenyl-indolizin-3-yl)-acetamide]	> 50	> 50	12.5 (≈ 29.2 µM)	12.5 (≈ 29.2 µM)	50 (≈ 117 µM)	
COc1ccc2cc(-c3ccccc3)c(C(=O)C(=O)Nc3ccc(N(C)C)cc3)n2c1 [Example 242, N-(4-Dimethylamino-phenyl)-2-(6-methoxy-2-phenyl-indolizin-3-yl)-2-oxo-acetamide]	0.4 (≈ 0.967 µM)	0.8 (≈ 1.93 µM)	0.1 (≈ 0.242 µM)	0.05 (≈ 0.121 µM)	0.8 (≈ 1.93 µM)	
O=C(C(=O)N1CCOCC1)c1c(-c2ccccc2)cc2ccccn12 [Example 300, 1-Morpholin-4-yl-2-(2-phenyl-indolizin-3-yl)-ethane-1,2-dione]		> 50			> 50	MIC ([1]; read-out: MIC A Niger): 25 µg/mL (≈ 74.8 µM); MIC ([3]; read-out: MIC A Terreus): > 50 µg/mL; MIC ([4]; read-out: MIC A Flavus): > 50 µg/mL
O=C(C(=O)N1CCCCCC1)c1c(-c2ccccc2)cc2ccccn12 [Example 301, 1-Azepan-1-yl-2-(2-phenyl-indolizin-3-yl)-ethane-1,2-dione]		25 (≈ 72.2 µM)			50 (≈ 144 µM)	MIC ([1]; read-out: MIC A Niger): 25 µg/mL (≈ 72.2 µM); MIC ([3]; read-out: MIC A Terreus): 12.5 µg/mL (≈ 36.1 µM); MIC ([4]; read-out: MIC A Flavus): 50 µg/mL (≈ 144 µM)
CCN(C(=O)C(=O)c1c(-c2ccccc2)cc2ccccn12)c1ccccc1 [Example 302, N-Ethyl-2-oxo-N-phenyl-2-(2-phenyl-indolizin-3-yl)-acetamide]		25 (≈ 67.9 µM)			50 (≈ 136 µM)	MIC ([1]; read-out: MIC A Niger): > 50 µg/mL; MIC ([3]; read-out: MIC A Terreus): 25 µg/mL (≈ 67.9 µM); MIC ([4]; read-out: MIC A Flavus): > 50 µg/mL
Cc1c(NC(=O)C(=O)c2c(-c3ccccc3)cc3ccccn23)c(=O)n(-c2ccccc2)n1C [Example 303, N-(1,5-Dimethyl-3-oxo-2-phenyl-2,3-dihydro-1-pyrazol-4-yl)-2-oxo-2-(2-phenyl-indolizin-3-yl)-acetamide]						MIC A Niger [1]: 50 µg/mL (≈ 111 µM); MIC A Fum. 210 [2]: 50 µg/mL (≈ 111 µM); MIC A Terreus [3]: 25 µg/mL (≈ 55.5 µM); MIC A Flavus [4]: 50 µg/mL (≈ 111 µM); MIC A Fum. 293 [6]: 50 µg/mL (≈ 111 µM)
N-(3-Methyl-3H-benzoimidazol-5-yl)-2-oxo-2-(2-phenyl-indolizin-3-yl)-acetamide and N-(1-Methyl-1H-benzoimidazol-5-yl)-2-oxo-2-(2-phenyl-indolizin-3-yl)-acetamide [Example 241]						MIC A Niger 1 [1]: 12.5 µg/mL; MIC A Fum. 210 [2]: 12.5 µg/mL; MIC A Terreus 4 [3]: 12.5 µg/mL; MIC A Flavus 01 [4]: 0.8 µg/mL; MIC A Fum. 293 [6]: 12.5 µg/mL
